The values below come from US12371454B2, “Cyclic peptide compound having Kras inhibitory action” (priority 2019, dated 2025).

As usually defined, the IC50 is the midpoint of a concentration-inhibition curve.

Starred links: 1 amine or outer side, 2 acyl side, 3 side chain; linkers in the order of their positions; H or OH if unused. Positions of bridges follow the written chain, without caps; N, C: chain ends. Non-standard residues stand in square brackets, D forms with d. Residues, ends and D or L forms follow the SMILES beside them. *: point of attachment. hPhe(3-Cl-4-CF3) = N[C@@H](CCc1ccc(C(F)(F)F)c(Cl)c1)C(=O)O; NMeNle(6-CHF2) = CN[C@@H](CCCCC(F)F)C(=O)O; NMePhe(4-F) = CN[C@@H](Cc1ccc(F)cc1)C(=O)O; X56 = O=C([C@H](Cc1cc(F)ccc1F)N[*:1])[*:2]; NMeNva(5,5-F2) = CN[C@@H](CCC(F)F)C(=O)O; NMeGly(cPent) = CN[C@H](C(=O)O)C1CCCC1; NMeY = CN[C@@H](Cc1ccc(O)cc1)C(=O)O; NMeCha = CN[C@@H](CC1CCCCC1)C(=O)O; hPhe = N[C@@H](CCc1ccccc1)C(=O)O; Cha = N[C@@H](CC1CCCCC1)C(=O)O; NMeD = CN[C@@H](CC(=O)O)C(=O)O; NMeL = CN[C@@H](CC(C)C)C(=O)O; NMeV = CN[C@H](C(=O)O)C(C)C; d(β3hA) = C[C@@H](N)CC(=O)O; NMeAbu = CC[C@H](NC)C(=O)O; NMeA = CN[C@@H](C)C(=O)O; NMeAib = CNC(C)(C)C(=O)O; Nle = CCCC[C@H](N)C(=O)O; Piperidide = C1CCN(*)CC1; dNMeA = CN[C@H](C)C(=O)O; Ac5c = NC1(C(=O)O)CCCC1; Aze = O=C(O)[C@@H]1CCN1; Sar = CNCC(=O)O

The target in the experiment is T1, Kras and SOS1 (biotin-tagged human Kras loaded with GDP, His-tagged human SOS1) (Homo sapiens, UniProt P01116, G12D).
T1 construct: made in house; host or cells: E. coli (stated for Kras only)
T1 sequence (P01116 1-188 isoform P01116-2 G12D): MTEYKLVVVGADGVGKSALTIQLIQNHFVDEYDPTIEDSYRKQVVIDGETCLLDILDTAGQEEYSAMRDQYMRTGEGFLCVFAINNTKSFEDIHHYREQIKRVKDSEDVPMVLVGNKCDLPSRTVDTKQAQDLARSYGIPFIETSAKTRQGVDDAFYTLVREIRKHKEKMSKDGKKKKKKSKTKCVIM
In words: Protein-protein interaction inhibition between Kras and SOS1 (KrasGl2D-SOS PPI) using AlphaScreen. The settings on record: AlphaScreen; biotin-tagged human Kras loaded with GDP, His-tagged human SOS1; read-out: KRAS G12D-SOS PPI IC50. The experiment is classed as binding. An outline of the steps: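 Binding between SOS1 and Kras is detected as bead-proximity luminescence: illuminate Ni-conjugated donors (680 nm), collect 520-620 nm emission from streptavidin-conjugated acceptors; Kras carries biotin and GDP loaded after purification, SOS1 carries a His tag.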
A general note: In Alpha technology, singlet oxygen from a donor bead excites a nearby acceptor bead.
As to `CC[C@H](C)[C@@H]1NC(=O)[C@H](C)N(C)C(=O)C[C@@H](C)NC(=O)[C@H](C2CCCC2)N(C)C(=O)C2(CCCC2)NC(=O)[C@@H]2CCCN2C(=O)[C@H](CCc2ccc(C(F)(F)F)c(Cl)c2)NC(=O)[C@@H](C)N(C)C(=O)[C@H](CC2CCCCC2)N(C)C(=O)CN(C)C(=O)CN(C)C1=O` [Compound 1535] (cyclo([Ac5c][NMeGly(cPent)][d(β3hA)][NMeA]I[Sar][Sar][NMeCha][dNMeA][hPhe(3-Cl-4-CF3)]P)), the half-inhibitory concentration (IC50) is 0.041 µM.

For `CC[C@H](C)[C@@H]1NC(=O)[C@H](C)N(C)C(=O)C[C@@H](C)NC(=O)[C@H](C2CCCC2)N(C)C(=O)C2(CCCC2)NC(=O)[C@@H]2CCCN2C(=O)[C@H](CCc2ccc(C(F)(F)F)c(Cl)c2)NC(=O)[C@@H](C)N(C)C(=O)[C@H](Cc2ccc(F)cc2)N(C)C(=O)CN(C)C(=O)CN(C)C1=O` [Compound 206] (cyclo([Ac5c][NMeGly(cPent)][d(β3hA)][NMeA]I[Sar][Sar][NMePhe(4-F)][dNMeA][hPhe(3-Cl-4-CF3)]P)), the IC50 stood at 0.11 µM.

For the compound `CC[C@H](C)[C@@H]1NC(=O)[C@H](CC(C)C)N(C)C(=O)C[C@@H](C(=O)N2CCCCC2)N(C)C(=O)[C@H](C(C)C)N(C)C(=O)C2(CCCC2)NC(=O)[C@@H]2CCCN2C(=O)[C@H](CCc2ccccc2)NC(=O)CN(C)C(=O)[C@H](CC2CCCCC2)N(C)C(=O)CN(C)C(=O)CN(C)C1=O` [Compound 265] ([NMeL]I[Sar][Sar][NMeCha][Sar][hPhe]P[Ac5c][NMeV][NMeD]-Piperidide; lactam N-11), the IC50 stood at 0.28 µM.

For `CC[C@H](C)[C@@H]1NC(=O)[C@H](CC(C)C)N(C)C(=O)C[C@@H](C(=O)N2CCCCC2)NC(=O)[C@H](C(C)C)N(C)C(=O)C2(CCCC2)NC(=O)[C@@H]2CCCN2C(=O)[C@H](CCc2ccc(C(F)(F)F)c(Cl)c2)NC(=O)CN(C)C(=O)[C@H](CC2CCCCC2)N(C)C(=O)CN(C)C(=O)CN(C)C1=O` [Compound 417] ([NMeL]I[Sar][Sar][NMeCha][Sar][hPhe(3-Cl-4-CF3)]P[Ac5c][NMeV]D-Piperidide; lactam N-11), the IC50 came out at 0.015 µM.

As to `CC[C@H](C)[C@@H]1NC(=O)[C@H](C)N(C)C(=O)C[C@@H](C)NC(=O)[C@H](C(C)C)N(C)C(=O)C2(CCCC2)NC(=O)[C@@H]2CCCN2C(=O)[C@H](CCc2ccc(C(F)(F)F)c(Cl)c2)NC(=O)[C@@H](C)N(C)C(=O)[C@H](Cc2ccc(F)cc2)N(C)C(=O)CN(C)C(=O)CN(C)C1=O` [Compound 1655] (cyclo([Ac5c][NMeV][d(β3hA)][NMeA]I[Sar][Sar][NMePhe(4-F)][dNMeA][hPhe(3-Cl-4-CF3)]P)), the IC50 amounted to 0.085 µM.

Turning to `CC(C)C[C@H]1C(=O)N[C@@H](CC2CCCCC2)C(=O)N(C)CC(=O)N(C)CC(=O)N(C)[C@@H](CC2CCCCC2)C(=O)N(C)CC(=O)N[C@@H](CCc2ccc(C(F)(F)F)c(Cl)c2)C(=O)N2CCC[C@H]2C(=O)NC2(CCCC2)C(=O)N(C)[C@@H](C(C)C)C(=O)N[C@H](C)CC(=O)N1C` [Compound 537] (cyclo([Ac5c][NMeV][d(β3hA)][NMeL][Cha][Sar][Sar][NMeCha][Sar][hPhe(3-Cl-4-CF3)]P)), the IC50 was 0.082 µM.

In the case of `CCCC[C@@H]1NC(=O)[C@H](Cc2cc(F)ccc2F)NC(=O)CN(C)C(=O)[C@H](Cc2ccc(OC)cc2)N(C)C(=O)[C@@H]2CCN2C(=O)[C@H](C)N(C)C(=O)[C@H]([C@@H](C)CC)NC(=O)[C@H](CC)N(C)C(=O)C[C@@H](C(=O)N2CCCCC2)N(C)C(=O)[C@H](CC(C)C)NC(=O)C(C)(C)N(C)C1=O` [Compound 1268] ([NMeAbu]I[NMeA][Aze][NMeY](Me)[Sar][X56][Nle][NMeAib]L[NMeD]-Piperidide; lactam N-11), the concentration for half-maximal inhibition (IC50) stood at 0.019 µM.

`CC[C@H](C)[C@@H]1NC(=O)[C@H](CC(C)C)N(C)C(=O)C[C@@H](C(=O)N2CCCCC2)N(C)C(=O)[C@H](CCC(F)F)N(C)C(=O)C2(CCCC2)NC(=O)[C@@H]2CCCN2C(=O)[C@H](CCc2ccc(C(F)(F)F)c(Cl)c2)NC(=O)CN(C)C(=O)[C@H](CC2CCCCC2)N(C)C(=O)CN(C)C(=O)CN(C)C1=O` [Compound 1782] ([NMeL]I[Sar][Sar][NMeCha][Sar][hPhe(3-Cl-4-CF3)]P[Ac5c][NMeNva(5,5-F2)][NMeD]-Piperidide; lactam N-11): the IC50 is 0.0022 µM.

As for `CC[C@H](C)[C@@H]1NC(=O)[C@H](CC(C)C)N(C)C(=O)C[C@@H](C(=O)N2CCCCC2)N(C)C(=O)[C@H](CCCCC(F)F)N(C)C(=O)C2(CCCC2)NC(=O)[C@@H]2CCCN2C(=O)[C@H](CCc2ccc(C(F)(F)F)c(Cl)c2)NC(=O)CN(C)C(=O)[C@H](CC2CCCCC2)N(C)C(=O)CN(C)C(=O)CN(C)C1=O` [Compound 653] ([NMeL]I[Sar][Sar][NMeCha][Sar][hPhe(3-Cl-4-CF3)]P[Ac5c][NMeNle(6-CHF2)][NMeD]-Piperidide; lactam N-11), the IC50 is 0.044 µM.
